# What was measured:
# [1] = cited from earlier work
# [2] = Symptomatic treatment of nonproductive cough in 3 volunteer patients in the final phase of a viral infection; format: in vivo, human
# Experimental: The efficacy of ibuprofen in the symptomatic treatment of nonproductive cough was determined in 3 volunteer patients in the final phase of a viral infection. For this purpose, the patients received oral administration of 400 or 800 mg of ibuprofen (the daily dose was between 400 and 1200 mg). No other medicaments were taken by the patients during the viral infection.
# It was observed after administration of ibuprofen that the number of attacks of coughing was reduced by more than 50% relative to the number of attacks of coughing before administration of ibuprofen.
# The effects of ibuprofen declined after 6 to 8 hours and the cough reappeared in the former severity.
# [3] = 600 mg three times a day for 6 days; cited from earlier work
# [4] = oral 400 or 800 mg ibuprofen, patients' report
compound,measurement,setting,value
CC(=O)Nc1ccc(O)cc1 [paracetamol],alleviation of the symptoms of cough,"[1]; 5 days, paracetamol 10 mg/kg 3x a day vs ibuprofen or nimesulide",greater
CS(=O)(=O)Nc1ccc([N+](=O)[O-])cc1Oc1ccccc1 [nimesulide],fever-reducing effect,"[1]; 5 days, nimesulide 2.5 mg/kg 2x a day vs paracetamol or ibuprofen 10 mg/kg 3x a day",better and faster than that of paracetamol or ibuprofen
CC(C)Cc1ccc(C(C)C(=O)O)cc1 (stereo not drawn) [ibuprofen],number of attacks of coughing reduced relative to the number before administration,"[2]; oral 400 or 800 mg ibuprofen (daily dose 400-1200 mg), 3 patients",more than 50%
same,intensity of the urge to cough,[2]; [4],reduced
same,severity of the attacks of coughing,[2]; [4],reduced
same,patients' rest at night,"[2]; oral 400 or 800 mg ibuprofen, without additional cough suppressant",possible to improve the patients' rest at night
same,symptoms of cough after renewed administrations,[2]; subsequent renewed administrations of ibuprofen,again led to the described improvement
same,symptoms of cough,"[1]; 10 mg/kg, 30 children, uncontrolled study",reduction in the symptoms of cough
same,number of coughing episodes compared with placebo,[3],reduction in the number of coughing episodes

# Reference: patent US20180125792A1, “NON-STEROIDAL ANTI-INFLAMMATORY DRUGS FOR COUGH” (BAYER CONSUMER CARE AG, priority 2006, published 2018)
